Assay results published in US7071217B2, “Substituted oxindole derivatives as tyrosine kinase inhibitors” (SmithKline Beecham Corporation, priority 2000, dated 2006).

Molecular target: T1, TrkA (Homo sapiens, UniProt P04629)
T1 construct: The enzyme is a GST-fusion of the intracellular domain expressed in SF9 cells; purchased Regeneron; host or cells: SF9 cells
Test: TrkA tyrosine kinase substrate phosphorylation assay (Src peptide, 33P-ATP, p81 filter plates)
Type: biochemical
Details: GST-fusion of TrkA intracellular domain; 20-40 nM TrkA, 30 uM ATP, 50 uM Src peptide, RT 120 min
Experimental: The compounds of the present invention have valuable pharmacologic properties. Different compounds from this class are particularly effective at inhibiting the trkA kinase enzyme at concentrations which range from 0.0001 to 1 μM and additionally show specificity relative to other kinases. Substrate phosphorylation assays were carried out as follows:
Screening format: Tyrosine kinase activity is being measured using a synthetic peptide substrate. The enzyme is a GST-fusion of the intracellular domain expressed in SF9 cells. The enzyme is expressed and purified by Regeneron. The enzyme is preincubated with cold ATP and Mg to allow autophosphorylation prior to running the screen. This increases the initial rate of catalysis approximately 3 fold. The assay is performed in 96 well microtitre plates, and reaction products are detected following filtration through millipore p81 phosphocellulose plates. Assay Conditions

T1 sequence (P04629 440-796 limits assumed, species assumed): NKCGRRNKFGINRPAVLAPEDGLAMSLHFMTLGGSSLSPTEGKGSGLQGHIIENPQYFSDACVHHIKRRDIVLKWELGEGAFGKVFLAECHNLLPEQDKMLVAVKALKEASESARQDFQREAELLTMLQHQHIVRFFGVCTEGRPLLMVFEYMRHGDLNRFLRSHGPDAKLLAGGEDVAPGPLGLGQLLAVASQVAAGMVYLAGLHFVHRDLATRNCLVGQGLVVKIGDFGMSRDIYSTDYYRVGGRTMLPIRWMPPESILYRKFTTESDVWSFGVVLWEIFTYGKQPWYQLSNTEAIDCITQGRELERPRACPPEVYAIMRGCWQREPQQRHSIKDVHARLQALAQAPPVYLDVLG

Row | SMILES | IC50
1 | CNS(=O)(=O)Cc1ccc(N/N=C2\C(=O)Nc3cc(C(C)C)c(O)c(Cl)c32)cc1 [Example 1, {4-[(2Z)-2-(4-chloro-5-hydroxy-6-isopropyl-2-oxo-1,2-dihydro-3H-indol-3-ylidene)hydrazino]phenyl}-N-methylmethanesulfonamide] | < 10 nM
2 | CS(=O)(=O)Nc1ccc(N/C=C2\C(=O)Nc3ccccc32)cc1 [Example 2, N-(4-{[(Z)-(2-oxo-1,2-dihydro-3H-indol-3-ylidene)methyl]amino}phenyl)methanesulfonamide] | < 10 nM
3 | O=C1Nc2ccccc2/C1=C/Nc1ccc(S(=O)(=O)Nc2ccccn2)cc1 [Example 3, 4-{[(Z)-(2-oxo-1,2-dihydro-3H-indol-3-ylidene)methyl]amino}-N-(2-pyridinyl)benzenesulfonamide] | 10 to 100 nM
4 | Cc1nnc(NS(=O)(=O)c2ccc(N/C=C3\C(=O)Nc4ccccc43)cc2)s1 [Example 4, N-(5-methyl-1,3,4-thiadiazol-2-yl)-4-{[(Z)-(2-oxo-1,2-dihydro-3H-indol-3-ylidene)methyl]amino}benzenesulfonamide] | 10 to 100 nM
5 | NS(=O)(=O)c1cccc(N/C=C2\C(=O)Nc3ccccc32)c1 [Example 5, 3-{[(Z)-(2-oxo-1,2-dihydro-3H-indol-3-ylidene)methyl]amino}benzenesulfonamide] | 10 to 100 nM
